According to US12146004B2, “Polymyxin compounds and uses thereof” (priority 2014, dated 2024):
≈ marks a conversion by molar mass, not a printed value. Read-outs that look alike come from different tables or passages of the source. Bridge positions count the residues as written; N and C are the ends. Square brackets hold non-standard residues; d marks the D form. Peptide text beside a SMILES is read from it. * marks the point of attachment. X16 = Cc1cc(C)cc(CO[C@@H](CCN)C(=O)*)c1; X9 = Cc1ccc(CO[C@@H](CCN)C(=O)*)cc1; dCha = N[C@H](CC1CCCCC1)C(=O)O; Dab = NCC[C@H](N)C(=O)O; Dap = NC[C@H](N)C(=O)O

Legend:
Format in all cases: cell-based
Acinetobacter baumannii = tested on: Acinetobacter baumannii
Summary of the method: (§1)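 Values are minimum inhibitory concentrations in μg/mL, measured across a panel of up to nine strains of each Gram-negative pathogen, some Polymyxin-elevated or resistant.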

Escherichia coli = tested on: Escherichia coli
Summary of the method: as §1

Klebsiella pneumoniae = tested on: Klebsiella pneumoniae
Summary of the method: as §1

Pseudomonas aeruginosa = tested on: Pseudomonas aeruginosa
Summary of the method: as §1

With Cc1ccc(CO[C@@H](CCN)C(=O)N[C@H](C(=O)N[C@@H](CN)C(=O)N[C@H]2CCNC(=O)[C@H]([C@@H](C)O)NC(=O)[C@H](CCN)NC(=O)[C@H](CCN)NC(=O)[C@H](CC(C)C)NC(=O)[C@@H](CC3CCCCC3)NC(=O)[C@H](CCN)NC2=O)[C@@H](C)O)cc1 [Example 71, (S)-4-amino-2-((4-methylbenzyl)oxy) butanoyl L-Thr-L-Dap-polymyxin [D-cyclohexylalanine]-6 heptapeptide.] (X9-T[Dap][Dab][Dab][dCha]L[Dab][Dab]T; lactam 3-C) the “MIC A. baumanii 053” value (Acinetobacter baumannii) was 64 µg/mL (≈ 55.2 µM), the “MIC A. baumanii 056” value (Acinetobacter baumannii) was 32 µg/mL (≈ 27.6 µM) and the “MIC A. baumanii ATCC BAA-747” value (Acinetobacter baumannii) was 0.125 µg/mL (≈ 0.108 µM). For the same compound, the “MIC A. baumanii NCTC 13424” value (Acinetobacter baumannii) was 0.125 µg/mL (≈ 0.108 µM), the “MIC E. coli 058” value (Escherichia coli) was 4 µg/mL (≈ 3.45 µM) and the “MIC E. coli 061” value (Escherichia coli) was 16 µg/mL (≈ 13.8 µM). The “MIC E. coli ATCC 25922” value (Escherichia coli) was 0.125 µg/mL (≈ 0.108 µM), the “MIC E. coli NCTC 9001” value (Escherichia coli) was 0.125 µg/mL (≈ 0.108 µM) and the “MIC K. pneumoniae 063” value (Klebsiella pneumoniae) was 64 µg/mL (≈ 55.2 µM). For the same compound, the “MIC K. pneumoniae 065” value (Klebsiella pneumoniae) was 4 µg/mL (≈ 3.45 µM), the “MIC K. pneumoniae ATCC 4352” value (Klebsiella pneumoniae) was 0.25 µg/mL (≈ 0.215 µM) and the “MIC K. pneumoniae ATCC 13882” value (Klebsiella pneumoniae) was 0.25 µg/mL (≈ 0.215 µM). The “MIC P. aeruginosa 068” value (Pseudomonas aeruginosa) was 8 µg/mL (≈ 6.89 µM), the “MIC P. aeruginosa 070” value (Pseudomonas aeruginosa) was 16 µg/mL (≈ 13.8 µM) and the “MIC P. aeruginosa ATCC 27853” value (Pseudomonas aeruginosa) was 0.25 µg/mL (≈ 0.215 µM). The “MIC P. aeruginosa CCUG 59347” value (Pseudomonas aeruginosa) was 0.25 µg/mL (≈ 0.215 µM).
With Cc1cc(C)cc(CO[C@@H](CCN)C(=O)N[C@H](C(=O)N[C@@H](CN)C(=O)N[C@H]2CCNC(=O)[C@H]([C@@H](C)O)NC(=O)[C@H](CCN)NC(=O)[C@H](CCN)NC(=O)[C@H](CC(C)C)NC(=O)[C@@H](CC3CCCCC3)NC(=O)[C@H](CCN)NC2=O)[C@@H](C)O)c1 [Example 90, (S)-4-amino-2-((3,5-dimethylbenzyl)oxy)butanoyl L-Thr-L-Dap-polymyxin [D-cyclohexylalanine-6]heptapeptide] (X16-T[Dap][Dab][Dab][dCha]L[Dab][Dab]T; lactam 3-C) the “MIC A. baumanii 053” value (Acinetobacter baumannii) was over 64 µg/mL, the “MIC A. baumanii 056” value (Acinetobacter baumannii) was 32 µg/mL (≈ 27.2 µM) and the “MIC A. baumanii ATCC BAA-747” value (Acinetobacter baumannii) was 0.125 µg/mL (≈ 0.106 µM). For the same compound, the “MIC A. baumanii NCTC 13424” value (Acinetobacter baumannii) was 0.06 µg/mL (≈ 0.0511 µM), the “MIC E. coli 058” value (Escherichia coli) was 2 µg/mL (≈ 1.7 µM) and the “MIC E. coli 061” value (Escherichia coli) was 16 µg/mL (≈ 13.6 µM). For the same compound, the “MIC E. coli ATCC 25922” value (Escherichia coli) was 0.125 µg/mL (≈ 0.106 µM), the “MIC E. coli NCTC 9001” value (Escherichia coli) was 0.125 µg/mL (≈ 0.106 µM) and the “MIC K. pneumoniae 063” value (Klebsiella pneumoniae) was 64 µg/mL (≈ 54.5 µM). For the same compound, the “MIC K. pneumoniae 065” value (Klebsiella pneumoniae) was 4 µg/mL (≈ 3.41 µM), the “MIC K. pneumoniae ATCC 13882” value (Klebsiella pneumoniae) was 0.25 µg/mL (≈ 0.213 µM) and the “MIC P. aeruginosa 068” value (Pseudomonas aeruginosa) was 4 µg/mL (≈ 3.41 µM). The “MIC P. aeruginosa 070” value (Pseudomonas aeruginosa) was 16 µg/mL (≈ 13.6 µM), the “MIC P. aeruginosa ATCC 27853” value (Pseudomonas aeruginosa) was 0.125 µg/mL (≈ 0.106 µM) and the “MIC P. aeruginosa CCUG 59347” value (Pseudomonas aeruginosa) was 0.25 µg/mL (≈ 0.213 µM).
In the case of CC(C)C[C@@H]1NC(=O)[C@@H](CC2CCCCC2)NC(=O)[C@H](CCN)NC(=O)[C@@H](NC(=O)[C@H](CN)NC(=O)[C@@H](NC(=O)CC(CN)c2ccc(Cl)cc2)C(C)O)CCNC(=O)[C@H]([C@@H](C)O)NC(=O)[C@H](CCN)NC(=O)[C@H](CCN)NC1=O (single isomer, unassigned; isomer 1) [Example 50, 4-amino-3-(4-chlorophenyl) butanoyl L-Thr-L-Dap-polymyxin [D-cyclohexylalanine]-6 heptapeptide. Isomer 1], the “MIC A. baumanii 053” value (Acinetobacter baumannii) is reported as 32 µg/mL (≈ 27.8 µM), the “MIC A. baumanii 056” value (Acinetobacter baumannii) is reported as 16 µg/mL (≈ 13.9 µM) and the “MIC A. baumanii ATCC BAA-747” value (Acinetobacter baumannii) is reported as 0.125 µg/mL (≈ 0.109 µM). For the same compound, the “MIC A. baumanii NCTC 13424” value (Acinetobacter baumannii) was 0.25 µg/mL (≈ 0.217 µM), the “MIC E. coli 058” value (Escherichia coli) was 2 µg/mL (≈ 1.74 µM) and the “MIC E. coli 061” value (Escherichia coli) was 16 µg/mL (≈ 13.9 µM). The “MIC E. coli ATCC 25922” value (Escherichia coli) was 0.5 µg/mL (≈ 0.434 µM), the “MIC K. pneumoniae 065” value (Klebsiella pneumoniae) was 1 µg/mL (≈ 0.869 µM) and the “MIC K. pneumoniae ATCC 13882” value (Klebsiella pneumoniae) was 0.25 µg/mL (≈ 0.217 µM). For the same compound, the “MIC P. aeruginosa 068” value (Pseudomonas aeruginosa) was 1 µg/mL (≈ 0.869 µM), the “MIC P. aeruginosa 070” value (Pseudomonas aeruginosa) was 2 µg/mL (≈ 1.74 µM) and the “MIC P. aeruginosa ATCC 27853” value (Pseudomonas aeruginosa) was 0.25 µg/mL (≈ 0.217 µM). The “MIC P. aeruginosa CCUG 59347” value (Pseudomonas aeruginosa) was 0.5 µg/mL (≈ 0.434 µM).
With CC(C)C[C@@H]1NC(=O)[C@@H](CC2CCCCC2)NC(=O)[C@H](CCN)NC(=O)[C@@H](NC(=O)[C@H](CCN)NC(=O)[C@@H](NC(=O)CC(CN)C2CCCCC2)[C@@H](C)O)CCNC(=O)[C@H]([C@@H](C)O)NC(=O)[C@H](CCN)NC(=O)[C@H](CCN)NC1=O (single isomer, unassigned; isomer 2) [Example 87, 4-amino-3-cyclohexylbutanoyl polymyxin [D-cyclohexylalanine-6]nonapeptide. Isomer 2] the “MIC A. baumanii 053” value (Acinetobacter baumannii; strain 053) was 64 µg/mL (≈ 56.3 µM), the “MIC A. baumanii 056” value (Acinetobacter baumannii; strain 056) was 64 µg/mL (≈ 56.3 µM) and the “MIC A. baumanii ATCC BAA-747” value (Acinetobacter baumannii; strain ATCC BAA-747) was 0.25 µg/mL (≈ 0.22 µM). The “MIC A. baumanii NCTC 13424” value (Acinetobacter baumannii; strain NCTC 13424) was 0.125 µg/mL (≈ 0.11 µM), the “MIC E. coli 058” value (Escherichia coli; strain 058) was 4 µg/mL (≈ 3.52 µM) and the “MIC E. coli 061” value (Escherichia coli; strain 061) was 16 µg/mL (≈ 14.1 µM). The “MIC E. coli ATCC 25922” value (Escherichia coli; strain ATCC 25922) was 0.125 µg/mL (≈ 0.11 µM), the “MIC E. coli NCTC 9001” value (Escherichia coli; strain NCTC 9001) was 0.125 µg/mL (≈ 0.11 µM) and the “MIC K. pneumoniae 063” value (Klebsiella pneumoniae; strain 063) was 16 µg/mL (≈ 14.1 µM). For the same compound, the “MIC K. pneumoniae 065” value (Klebsiella pneumoniae; strain 065) was 0.5 µg/mL (≈ 0.44 µM), the “MIC K. pneumoniae ATCC 13882” value (Klebsiella pneumoniae; strain ATCC 13882) was 0.25 µg/mL (≈ 0.22 µM) and the “MIC P. aeruginosa 068” value (Pseudomonas aeruginosa; strain 068) was 2 µg/mL (≈ 1.76 µM). For the same compound, the “MIC P. aeruginosa 070” value (Pseudomonas aeruginosa; strain 070) was 8 µg/mL (≈ 7.04 µM), the “MIC P. aeruginosa ATCC 27853” value (Pseudomonas aeruginosa; strain ATCC 27853) was 0.25 µg/mL (≈ 0.22 µM) and the “MIC P. aeruginosa CCUG 59347” value (Pseudomonas aeruginosa; strain CCUG 59347) was 0.5 µg/mL (≈ 0.44 µM).
With CC(C)C[C@@H]1NC(=O)[C@@H](CC2CCCCC2)NC(=O)[C@H](CCN)NC(=O)[C@@H](NC(=O)[C@H](CN)NC(=O)[C@@H](NC(=O)CC(CN)C2CCCCC2)C(C)O)CCNC(=O)[C@H]([C@@H](C)O)NC(=O)[C@H](CCN)NC(=O)[C@H](CCN)NC1=O (single isomer, unassigned; isomer 2) [Example 43, 4-amino-3-cyclohexylbutanoyl L-Thr-L-Dap-polymyxin [D-cyclohexylalanine]-6 heptapeptide. isomer 2] the “MIC A. baumanii 053” value (Acinetobacter baumannii; strain 053) was 64 µg/mL (≈ 57 µM), the “MIC A. baumanii 056” value (Acinetobacter baumannii; strain 056) was 32 µg/mL (≈ 28.5 µM) and the “MIC A. baumanii ATCC BAA-747” value (Acinetobacter baumannii; strain ATCC BAA-747) was 0.125 µg/mL (≈ 0.111 µM). The “MIC A. baumanii NCTC 13424” value (Acinetobacter baumannii; strain NCTC 13424) was 0.25 µg/mL (≈ 0.223 µM), the “MIC E. coli 058” value (Escherichia coli; strain 058) was 1 µg/mL (≈ 0.891 µM) and the “MIC E. coli 061” value (Escherichia coli; strain 061) was 8 µg/mL (≈ 7.13 µM). For the same compound, the “MIC E. coli ATCC 25922” value (Escherichia coli; strain ATCC 25922) was 0.25 µg/mL (≈ 0.223 µM), the “MIC E. coli NCTC 9001” value (Escherichia coli; strain NCTC 9001) was 0.06 µg/mL (≈ 0.0535 µM) and the “MIC K. pneumoniae 063” value (Klebsiella pneumoniae; strain 063) was 16 µg/mL (≈ 14.3 µM). The “MIC K. pneumoniae 065” value (Klebsiella pneumoniae; strain 065) was 0.5 µg/mL (≈ 0.445 µM), the “MIC K. pneumoniae ATCC 13882” value (Klebsiella pneumoniae; strain ATCC 13882) was 0.25 µg/mL (≈ 0.223 µM) and the “MIC P. aeruginosa 068” value (Pseudomonas aeruginosa; strain 068) was 2 µg/mL (≈ 1.78 µM). The “MIC P. aeruginosa 070” value (Pseudomonas aeruginosa; strain 070) was 2 µg/mL (≈ 1.78 µM), the “MIC P. aeruginosa ATCC 27853” value (Pseudomonas aeruginosa; strain ATCC 27853) was 0.25 µg/mL (≈ 0.223 µM) and the “MIC P. aeruginosa CCUG 59347” value (Pseudomonas aeruginosa; strain CCUG 59347) was 0.25 µg/mL (≈ 0.223 µM).
